From patent publication USRE40086E1, “Method for treating bacterial infection with novel 7-substituted-9-substituted amino 6-demethyl-6-deoxytetracyclines” (Wyeth Holdings Corporation, priority 1991, dated 2008)
Structures can show the parent of a compound that is named as a salt. Where two headings read alike, the source gives them in different places.

What was measured:
E. faecalis 12201 = experiment: MIC, agar dilution; assay type: cell-based
Listeria monocytogenes = experiment: MIC vs recent clinical and agricultural isolates (Table V, KK); assay type: cell-based; details: [8] tested
[1] = tested on: S. aureus UBMS 90-3 (Sensitive); experiment: MIC, agar dilution; assay type: cell-based
[2] = tested on: Escherichia coli (Clinical); experiment: MIC vs recent clinical and agricultural isolates (Table V, KK); assay type: cell-based; details: [30] tested
[3] = tested on: S. aureus Smith (Sensitive); experiment: MIC, agar dilution; assay type: cell-based
[4] = tested on: S. aureus UBMS 90-1 (tetM); experiment: MIC, agar dilution; assay type: cell-based; details: for MIC: S. aureus UBMS 90-1 (tetM)
Bacteroides spp. = experiment: MIC vs recent clinical and agricultural isolates (Table V, KK); assay type: cell-based; details: [9] tested
[5] = tested on: Pasturella multocida (Agricultural & Clinical); experiment: as above; assay type: cell-based; details: [17] tested
[6] = tested on: E. coli UBMS 89-2 (Sensitive); experiment: MIC, agar dilution; assay type: cell-based
[7] = tested on: S. haemolyticus AVAH 88-3; experiment: MIC, agar dilution; assay type: cell-based
[8] = tested on: Staphylococcus Coagulase-negative, methicillin-susceptible; experiment: MIC vs recent clinical and agricultural isolates (Table V, KK); assay type: cell-based; details: [16] tested
[9] = tested on: S. aureus UBMS 90-2 (tetM); experiment: MIC, agar dilution; assay type: cell-based; details: for MIC: S. aureus UBMS 90-2 (tetM)
E. faecalis ATCC 29212 = experiment: MIC, agar dilution; assay type: cell-based; details: E. faecalis ATCC 29212
[10] = tested on: S. aureus UBMS 88-4 (Sensitive); experiment: MIC, agar dilution; assay type: cell-based
Serratia mercescens = experiment: MIC vs recent clinical and agricultural isolates (Table V, KK); assay type: cell-based; details: [10] tested
Xanthomonas maltophilia = experiment: as above; assay type: cell-based; details: [10] tested
Bacteroides fragilis = experiment: as above; assay type: cell-based; details: [11] tested
[11] = tested on: Enterococcus spp. Vancomycin-resistant; experiment: as above; assay type: cell-based; details: [8] tested
Moraxella catarrhalis = experiment: as above; assay type: cell-based; details: [18] tested
[12] = tested on: Escherichia coli UBMS 90-4 (Tet-M); experiment: In vivo antibacterial evaluation, acute lethal infection in mice
[13] = tested on: Staphylococcus aureus, methicillin-resistant; experiment: MIC vs recent clinical and agricultural isolates (Table V, KK); assay type: cell-based; details: [15] tested
S. aureus SMITH (sens) = experiment: In vivo antibacterial evaluation, acute lethal infection in mice
Description: In Vivo Antibacterial Evaluation (Table VII)

Streptococcus pyogenes = experiment: MIC vs recent clinical and agricultural isolates (Table V, KK); assay type: cell-based; details: [10] tested
[14] = tested on: S. aureus UBMS 88-5 (tetM); experiment: MIC, agar dilution; assay type: cell-based; details: for MIC: S. aureus UBMS 88-5 (tetM)
[15] = tested on: S. aureus ATCC 29213 (Sensitive); experiment: MIC, agar dilution; assay type: cell-based
[16] = tested on: Bordetella bronchiseptica (Agricultural); experiment: MIC vs recent clinical and agricultural isolates (Table V, KK); assay type: cell-based; details: [10] tested
E. coli UBMS 90-4 (tetM) = experiment: MIC, agar dilution; assay type: cell-based
E. coli UBMS 88-1 (tetB) = experiment: MIC, agar dilution; assay type: cell-based; details: for MIC: E. coli UBMS 88-1 (tetB)
Citrobacter freundii = experiment: MIC vs recent clinical and agricultural isolates (Table V, KK); assay type: cell-based; details: [10] tested
E. coli UBMS 89-1 (tetM) = experiment: MIC, agar dilution; assay type: cell-based
[17] = tested on: Escherichia coli (Agricultural); experiment: MIC vs recent clinical and agricultural isolates (Table V, KK); assay type: cell-based; details: [15] tested
Klebsiella oxytoca = experiment: as above; assay type: cell-based; details: [10] tested
Clostridium perfringens = assay type: cell-based; details: [16] tested
[18] = tested on: Bacertoides fragilis group; experiment: MIC vs recent clinical and agricultural isolates (Table V, KK); assay type: cell-based; details: [10] tested
Pseudomonas aeruginosa = experiment: as above; assay type: cell-based; details: [10] tested
Proteus mirabilis = experiment: as above; assay type: cell-based; details: [26] tested
Enterococcus faecalis = experiment: as above; assay type: cell-based; details: [10] tested
Enterobacter cloacae = experiment: as above; assay type: cell-based; details: [10] tested
Streptococcus agalactiae = experiment: as above; assay type: cell-based; details: [10] tested
Proteus vulgaris = experiment: as above; assay type: cell-based; details: [18] tested
Haemophilus influenzae = experiment: as above; assay type: cell-based; details: [15] tested
[19] = tested on: S. aureus UBMS 88-7 (tetK); experiment: MIC, agar dilution; assay type: cell-based
E. coli ATCC 25922 = experiment: MIC, agar dilution; assay type: cell-based

SMILES: CN(C)CC(=O)Nc1cc(N(C)C)c2c(c1O)C(=O)C1=C(O)[C@]3(O)C(=O)C(C(N)=O)=C(O)[C@@H](N(C)C)C3CC1C2.Cl.Cl (stereo partly drawn) [KK, [4S-(4alpha,12aalpha)]-4,7-Bis(dimethylamino)-9-[[(dimethylamino)acetyl]amino]-1,4,4a,5,5a,6,11,12a-octahydro-3,10,12,12a-tetrahydroxy-1,11-dioxo-2-naphthacenecarboxamide dihydrochloride]
- Antibacterial activity (MIC) (E. faecalis 12201; Enterococcus 12201, Table IA, unit assumed): 0.12 µg/mL
- MIC (range over isolates) (Listeria monocytogenes): 0.06 to 0.12 µg/mL
- Antibacterial activity (MIC) ([1]; S. aureus UBMS 90-3, Table IA, unit assumed): 0.03 µg/mL
- MIC (range over isolates) [2]: 0.12 to 4 µg/mL
- Antibacterial activity (MIC) ([3]; S. aureus SMITH (MP), Table IA, unit assumed): 0.06 µg/mL
- Antibacterial activity (MIC) ([4]; S. aureus UBMS 90-1 TetM, Table IA, unit assumed): 0.25 µg/mL
- MIC (range over isolates) (Bacteroides spp.): 0.03 to 1 µg/mL
- MIC (range over isolates) [5]: 0.03 to 0.25 µg/mL
- Antibacterial activity (MIC) ([6]; E. coli UBMS 89-2 Tet Sens., Table IA, unit assumed): 0.25 µg/mL
- Antibacterial activity (MIC) ([7]; S. hemolyticus AVHAH 88-3, Table IA, unit assumed): 0.12 µg/mL
- MIC (range over isolates) [8]: 0.12 to 8 µg/mL
- Antibacterial activity (MIC) ([9]; S. aureus UBMS 90-2 TetM, Table IA, unit assumed): 0.12 µg/mL
- Antibacterial activity (MIC) (E. faecalis ATCC 29212; Table IA, unit assumed): 0.06 µg/mL
- Antibacterial activity (MIC) ([10]; S. aureus UBMS 88-4, Table IA, unit assumed): 0.12 µg/mL
- MIC (range over isolates) (Serratia mercescens): 2 to 8 µg/mL
- MIC (range over isolates) (Xanthomonas maltophilia): 0.5 to 2 µg/mL
- MIC (range over isolates) (Bacteroides fragilis): 0.06 to 0.2 µg/mL
- MIC (range over isolates) [11]: 0.015 to 0.06 µg/mL
- MIC (range over isolates) (Moraxella catarrhalis): 0.06 to 0.12 µg/mL
- ED50 ([12]; mice, Escherichia coli UBMS 90-4 (Tet-M), Intraveneous): 2.49 mg/kg
- MIC (range over isolates) [13]: 0.12 to 2 µg/mL
- ED50 (S. aureus SMITH (sens); Oral): 8 to 16 mg/kg
- MIC (range over isolates) (Streptococcus pyogenes): 0.06 to 0.12 µg/mL
- Antibacterial activity (MIC) ([14]; S. aureus UBMS 88-5 TetM, Table IA, unit assumed): 0.25 µg/mL
- Antibacterial activity (MIC) ([15]; S. aureus ATCC 29213, Table IA): ≦0.015
- MIC (range over isolates) [16]: 0.12 µg/mL
- Antibacterial activity (MIC) (E. coli UBMS 90-4 (tetM); E. coli UBMS 90-4 TetM, Table IA, unit assumed): 0.25 µg/mL
- Antibacterial activity (MIC) (E. coli UBMS 88-1 (tetB); E. coli UBMS 88-1 TetB, Table IA, unit assumed): 0.25 µg/mL
- MIC (range over isolates) (Citrobacter freundii): 0.25 to 8 µg/mL
- Antibacterial activity (MIC) (E. coli UBMS 89-1 (tetM); E. coli UBMS 89-1 TetM, Table IA, unit assumed): 0.12 µg/mL
- MIC (range over isolates) [17]: 0.12 to 4 µg/mL
- MIC (range over isolates) (Klebsiella oxytoca): 0.5 to 1 µg/mL
- MIC (range over isolates) (Clostridium perfringens): 0.03 to 1 µg/mL
- MIC (range over isolates) [18]: 0.06 to 2 µg/mL
- MIC (range over isolates) (Pseudomonas aeruginosa): 1 to 16 µg/mL
- MIC (range over isolates) (Proteus mirabilis): 1 to 32 µg/mL
- MIC (range over isolates) (Enterococcus faecalis): 0.015 to 0.12 µg/mL
- MIC (range over isolates) (Enterobacter cloacae): 0.5 to 1 µg/mL
- MIC (range over isolates) (Streptococcus agalactiae): 0.06 to 0.25 µg/mL
- MIC (range over isolates) (Proteus vulgaris): 0.5 to 4 µg/mL
- MIC (range over isolates) (Haemophilus influenzae): 0.5 to 2 µg/mL
- Antibacterial activity (MIC) ([19]; S. aureus UBMS 88-7 TetK, Table IA, unit assumed): 0.25 µg/mL
- Antibacterial activity (MIC) (E. coli ATCC 25922; E. coli ATCC 25922, Table IA, unit assumed): 0.25 µg/mL

SMILES: CN(C)c1ccc(O)c2c1C[C@H]1C[C@H]3[C@H](N(C)C)C(O)=C(C(N)=O)C(=O)[C@@]3(O)C(O)=C1C2=O [Compound O, 7-(Dimethylamino)-6-demethyl-6-deoxytetracycline hydrochloride (minocycline hydrochloride), reference compound]
- MIC (E. faecalis 12201; E. faecalis 12201, hydrochloride): 8 µg/mL
- MIC (E. faecalis 12201; Enterococcus faecalis, 12201, E. faecalis 12201, read-out: MIC): 4 µg/mL
- MIC (range over isolates) (Listeria monocytogenes): 0.015 to 0.03 µg/mL
- MIC ([1]; Staphylococcus aureus, S. aureus UBMS 90-3 (Sensitive), read-out: MIC): ≤ 0.015 µg/mL
- MIC (range over isolates) [2]: 0.25 to 32 µg/mL
- MIC ([3]; Staphylococcus aureus, S. aureus Smith (Sensitive), read-out: MIC): ≤ 0.015 µg/mL
- MIC ([4]; hydrochloride): 2 µg/mL
- MIC ([4]; Staphylococcus aureus): 4 µg/mL
- MIC (range over isolates) (Bacteroides spp.): 0.03 to 16 µg/mL
- MIC (range over isolates) [5]: 0.015 to 4 µg/mL
- MIC ([6]; Escherichia coli, E. coli UBMS 89-2 (Sensitive), read-out: MIC): 0.5 µg/mL
- MIC ([7]; S. haemolyticus AVAH 88-3, hydrochloride): 0.06 µg/mL
- MIC ([7]; Staphylococcus haemolyticus, AVAH883, S. haemolyticus AVAH 88-3, read-out: MIC): 0.03 µg/mL
- MIC (range over isolates) [8]: 0.03 to 1 µg/mL
- MIC ([9]; hydrochloride): 1 µg/mL
- MIC ([9]; Staphylococcus aureus): 2 µg/mL
- MIC (E. faecalis ATCC 29212; Enterococcus faecalis, ATCC29212, read-out: MIC): 0.5 µg/mL
- MIC ([10]; Staphylococcus aureus, S. aureus UBMS 88-4 (Sensitive), read-out: MIC): ≤ 0.015 µg/mL
- MIC (range over isolates) (Serratia mercescens): 1 to 8 µg/mL
- MIC (range over isolates) (Xanthomonas maltophilia): 0.12 to 1 µg/mL
- MIC (range over isolates) (Bacteroides fragilis): <0.008 to 16 µg/mL
- MIC (range over isolates) [11]: 0.03 to 16 µg/mL
- MIC (range over isolates) (Moraxella catarrhalis): 0.03 to 0.12 µg/mL
- ED50 ([12]; Escherichia coli, in Mus musculus, iv): > 32 mg/kg
- MIC (range over isolates) [13]: 0.06 to 4 µg/mL
- ED50 (S. aureus SMITH (sens); Staphylococcus aureus, Oral, read-out: ED50): 0.74 mg/kg
- ED50 (S. aureus SMITH (sens); Staphylococcus aureus, iv, Intraveneous, read-out: ED50): 0.37 mg/kg
- MIC (range over isolates) (Streptococcus pyogenes): 0.03 to 2 µg/mL
- MIC ([14]; hydrochloride): 4 µg/mL
- MIC ([14]; Staphylococcus aureus): 2 µg/mL
- MIC ([15]; Staphylococcus aureus, ATCC29213, S. aureus ATCC 29213 (Sensitive), read-out: MIC): ≤ 0.015 µg/mL
- MIC (range over isolates) [16]: 0.06 to 0.12 µg/mL
- MIC (E. coli UBMS 90-4 (tetM); Escherichia coli): 64 µg/mL
- MIC (E. coli UBMS 88-1 (tetB); hydrochloride): 16 µg/mL
- MIC (E. coli UBMS 88-1 (tetB); Escherichia coli): 8 µg/mL
- MIC (range over isolates) (Citrobacter freundii): 0.03 to 32 µg/mL
- MIC (E. coli UBMS 89-1 (tetM); Escherichia coli): 16 µg/mL
- MIC (range over isolates) [17]: 1 to 16 µg/mL
- MIC (range over isolates) (Klebsiella oxytoca): 0.5 to 4 µg/mL
- MIC (range over isolates) (Clostridium perfringens): >0.008 to 16 µg/mL
- MIC (range over isolates) [18]: <0.008 to 4 µg/mL
- MIC (range over isolates) (Pseudomonas aeruginosa): 1 to 16 µg/mL
- MIC (range over isolates) (Proteus mirabilis): 1 to 32 µg/mL
- MIC (range over isolates) (Enterococcus faecalis): 0.03 to 16 µg/mL
- MIC (range over isolates) (Enterobacter cloacae): 0.25 to 4 µg/mL
- MIC (range over isolates) (Streptococcus agalactiae): 0.12 to 16 µg/mL
- MIC (range over isolates) (Proteus vulgaris): 0.5 to 16 µg/mL
- MIC (range over isolates) (Haemophilus influenzae): 0.5 to 2 µg/mL
- MIC ([19]; Staphylococcus aureus): 0.06 µg/mL
- MIC (E. coli ATCC 25922; E. coli ATCC 25922, hydrochloride): 0.5 µg/mL
- MIC (E. coli ATCC 25922; Escherichia coli, ATCC25922, E. coli ATCC 25922, read-out: MIC): 0.25 µg/mL
